Measurements as given in patent US20260243781A1, “METHOD” (Philip Morris Products S.A., priority 2023, published 2026).

Tests used:
NHBE cells [1] = experiment: Modified GSH/GSSG-Glo assay in NHBE cells; format: cell-based, human
Experimental: • 1. A tissues sample is treated basolaterally in medium containing 25 μM ROS-GloTM H2O2 substrate for the desired exposure duration. • Treatment duration is not longer than 6 hours due to instability of the substrate. • 2. After treatment, 75 μL of the medium is collected for the ROS endpoint (see example 3), and the remaining cell or tissue sample transferred to new 24-well plate for the GSH/GSSG endpoint. ROS samples are stored at 4° C. for a maximum total of 6 hours taking into account the treatment duration, while GSH/GSSG samples must be processed immediately. This Specific Example Based on GSH/GSSG-GloTM Assay Kit Catalogue #[…] and Described in Technical Manual #TM344 from Promega • (A) Starting with the cell or tissue sample from point 2 of Example 1, the cell supernatant is removed. • (B) 100 μL of cold Passive lysis buffer is 1× diluted in water is added per well, to tissue/cell samples and shaken for 5 min at 300 rpm on ice. • (C) 100 μL of lysate is placed into 2 wells containing 50 μL each. • (D) In one well 1 μL of Luciferin-NT is added for quantification of total GSH. • (E) In the other well, 1 μL of Luciferin-NT and 0.5 μL of N-Ethylmaleimide (NEM) at 25 mM is added for quantification of oxidized GSSG. • (F) Both wells are incubated for 5 min shaking at 300 rpm at room temperature. • (G) 50 μL of Luciferin Generation Reagent is added per well, and both wells shaken for 1 min. • (H) Both wells are incubated for 29 min standing at room temperature. • (I) 100 μL of Luciferin detection reagent is added to both wells and they are shaken for 1 min. • (J) Both wells are incubated for 14 min. • (K) Both wells are transferred to an assay plate containing a calibration curve (suitably prepared as in the supplier's protocol). • (L) The luminescence of each well is measured with FLUOstar® Omega “GSHG assay” In this example oxidative stress was simulated by adding menadione sodium bisulfite to four samples. Four of the samples had 10 μM, 30 μM, 100 μM or 300 μM of menadione sodium bisulfite respectively added to the medium to simulate increasing levels of oxidative stress. The fifth sample was used as the vehicle control wherein on the medium and 0.3% water were added. The assays were performed in triplicate on NHBE cells. In the top row of FIG. 9, the same experiments of the invention as per Example 6 (shown top row of FIG. 8) were carried out. In addition, the ROS endpoint analysis method of the invention (as per Example 5 above) was carried out on the same samples at the 1 hour and 2 hour time points (shown in FIG. 9, bottom row). A star (*) indicates significance P<0.05 paired t-test. Two stars (**) indicates significance P<0.01 paired t-test. The cells used where an NHBE cell line exposed to water-soluble menadione sodium bisulfite.

3D bronchial cultures [2] = experiment: Modified GSH/GSSG-Glo assay in 3D bronchial cultures; format: cell-based, human
Experimental: (§1) • 1. A tissues sample is treated basolaterally in medium containing 25 μM ROS-Glo™ H2O2 substrate for the desired exposure duration. • Treatment duration is not longer than 6 hours due to instability of the substrate. • 2. After treatment, 75 μL of the medium is collected for the ROS endpoint (see example 3), and the remaining cell or tissue sample transferred to new 24-well plate for the GSH/GSSG endpoint. ROS samples are stored at 4° C. for a maximum total of 6 hours taking into account the treatment duration, while GSH/GSSG samples must be processed immediately.
This Specific Example Based on GSH/GSSG-Glo™ Assay Kit Catalogue #V6611 and V6612 and Described in Technical Manual #TM344 from Promega • (A) Starting with the cell or tissue sample from point 2 of Example 1, the cell supernatant is removed. • (B) 100 μL of cold Passive lysis buffer is 1× diluted in water is added per well, to tissue/cell samples and shaken for 5 min at 300 rpm on ice. • (C) 100 μL of lysate is placed into 2 wells containing 50 μL each. • (D) In one well 1 μL of Luciferin-NT is added for quantification of total GSH. • (E) In the other well, 1 μL of Luciferin-NT and 0.5 μL of N-Ethylmaleimide (NEM) at 25 mM is added for quantification of oxidized GSSG. • (F) Both wells are incubated for 5 min shaking at 300 rpm at room temperature. • (G) 50 μL of Luciferin Generation Reagent is added per well, and both wells shaken for 1 min. • (H) Both wells are incubated for 29 min standing at room temperature. • (I) 100 μL of Luciferin detection reagent is added to both wells and they are shaken for 1 min. • (J) Both wells are incubated for 14 min. • (K) Both wells are transferred to an assay plate containing a calibration curve (suitably prepared as in the supplier's protocol). • (L) The luminescence of each well is measured with FLUOstar® Omega “GSHG assay”
(§2) A 3D bronchial culture can be provided by isolating bronchial cells or using commercially available primary cells, culturing them and seeding them on a 3D framework. Suitable cultures include MucilAir™. MucilAir™ is an in vitro cell model of the human airway eplithelium cultures at the air liquid interface and available from Epithelix (for example, here https://www.epithelix.com/products/mucilair).
(§3) FIG. 11 is a further schematic showing how GSH/GSSG and ROS assays (as detailed in Example 4 and Example 5 above) can be adapted to 3D bronchial cultures. In this experiment, three 3D cultures were used. […] The GSH/GSSG-Glo assays were performed on samples from the cell culture within the culture insert and the ROS-Glo assays were performed on the basolateral medium. This was performed in triplicate.

NHBE cells [3] = experiment: ROS-Glo H2O2 assay (non-lytic) in NHBE cells; format: cell-based, human
Experimental: • 1. A tissues sample is treated basolaterally in medium containing 25 μM ROS-GloTM H2O2 substrate for the desired exposure duration. • Treatment duration is not longer than 6 hours due to instability of the substrate. • 2. After treatment, 75 μL of the medium is collected for the ROS endpoint (see example 3), and the remaining cell or tissue sample transferred to new 24-well plate for the GSH/GSSG endpoint. ROS samples are stored at 4° C. for a maximum total of 6 hours taking into account the treatment duration, while GSH/GSSG samples must be processed immediately. This Specific Example is Based on Non-Lytic Variant of ROS-GloTM H2O2 Assay Kit Catalogue #[…] and Described in Technical Manual TM391 from Promega. • (a) 75 μL of sample medium collected in Example 1, step 2, and 75 μL of compound interference controls are added to an assay plate. • (b) 10 wells, 100 μL per well are added to the assay plate for standard curve calibration. • (c) 75 μL of freshly prepared ROS-Glo Detection SolutionTM is added to all samples and compound interference control wells. D-cysteine is added on top if not present in reagents, preferably 0.01 to 20 mM, preferably 0.1 to 10 mM. • (d) 100 μL of ROS-Glo Detection SolutionTM is added to standard curve wells. • (e) The assay plate is shaken for 1 minute at room temperature on a plate shaker set at 300 rpm. • (f) The plate is incubated for 20 minutes standing at room temperature. • (g) Luminescence is measured with FLUOstar® Omega using the pre-defined “ROS-GloTM H2O2 assay”. In this example oxidative stress was simulated by adding menadione sodium bisulfite to four samples. Four of the samples had 10 μM, 30 μM, 100 μM or 300 μM of menadione sodium bisulfite respectively added to the medium to simulate increasing levels of oxidative stress. The fifth sample was used as the vehicle control wherein on the medium and 0.3% water were added. The assays were performed in triplicate on NHBE cells. In the top row of FIG. 9, the same experiments of the invention as per Example 6 (shown top row of FIG. 8) were carried out. […]

3D bronchial cultures [4] = experiment: ROS-Glo H2O2 assay on basolateral medium of 3D bronchial cultures; format: cell-based, human
Experimental: as §1
(§4) This Specific Example is Based on Non-Lytic Variant of ROS-Glo™ H2O2 Assay Kit Catalogue #G8820 and G8821 and Described in Technical Manual TM391 from Promega. • (a) 75 μL of sample medium collected in Example 1, step 2, and 75 μL of compound interference controls are added to an assay plate. • (b) 10 wells, 100 μL per well are added to the assay plate for standard curve calibration. • (c) 75 μL of freshly prepared ROS-Glo Detection Solution™ is added to all samples and compound interference control wells.
as §2, §3

A549 lung cell line [5] = experiment: ROS-Glo H2O2 assay in A549 lung cell line; format: cell-based, human; conditions: A549, dose-dependent
Experimental: as §4
In this experiment, an A549 lung cell line was exposed to lipid-soluble menadione (Vitamin K3) to simulate oxidative stress.

HepaRG ® = conditions: HepaRG, 50,000 cells/well, menadione-treated; cited from earlier work
HepG2 = conditions: HepG2, 10,000 cells/well, menadione-treated; cited from earlier work
A549 lung cell line [6] = experiment: Cell viability in A549 lung cell line; format: cell-based, human; conditions: A549, two highest concentrations
NHBE cells [7] = experiment: Cell viability / cytotoxicity (ATP levels) in NHBE cells; format: cell-based, human
Rat hepatocytes = conditions: Rat hepatocytes, 50,000 cells/well, menadione-treated; cited from earlier work
A549 = conditions: A549, 5,000 cells/well, menadione-treated; cited from earlier work
HeLa = conditions: HeLa, 5,000 cells/well, menadione-treated; cited from earlier work
A549 lung cell line [8] = experiment: GSH/GSSG assay in A549 lung cell line; format: cell-based, human; conditions: A549, dose-dependent
Experimental: This Specific Example Based on GSH/GSSG-Glo™ Assay Kit Catalogue #V6611 and V6612 and Described in Technical Manual #TM344 from Promega • (A) Starting with the cell or tissue sample from point 2 of Example 1, the cell supernatant is removed. • (B) 100 μL of cold Passive lysis buffer is 1× diluted in water is added per well, to tissue/cell samples and shaken for 5 min at 300 rpm on ice. • (C) 100 μL of lysate is placed into 2 wells containing 50 μL each. • (D) In one well 1 μL of Luciferin-NT is added for quantification of total GSH. • (E) In the other well, 1 μL of Luciferin-NT and 0.5 μL of N-Ethylmaleimide (NEM) at 25 mM is added for quantification of oxidized GSSG. • (F) Both wells are incubated for 5 min shaking at 300 rpm at room temperature. • (G) 50 μL of Luciferin Generation Reagent is added per well, and both wells shaken for 1 min. • (H) Both wells are incubated for 29 min standing at room temperature. • (I) 100 μL of Luciferin detection reagent is added to both wells and they are shaken for 1 min. • (J) Both wells are incubated for 14 min. • (K) Both wells are transferred to an assay plate containing a calibration curve (suitably prepared as in the supplier's protocol). • (L) The luminescence of each well is measured with FLUOstar® Omega “GSHG assay” […]

3D bronchial cultures [9] = experiment: Cell viability in 3D bronchial cultures; format: cell-based, human; conditions: lipid-soluble menadione
[10] = 30 µM, 1 hour and 2 hour time points
[11] = higher dose (300 μM) versus lower dose, 3D bronchial culture
[12] = higher dose (300 μM), 3D bronchial culture
[13] = lower dose (100 μM), 3D bronchial culture
[14] = 3D bronchial cultures, lipid-soluble menadione, dose-dependent

With `CC1(S(=O)(=O)[O-])CC(=O)c2ccccc2C1=O.[Na+]` (stereo not shown) [Menadione sodium bisulfite, menadione sodium bisulfite] the GSH/GSSG (NHBE cells [1]; [10]) was “no changes in GSH/GSSG”, the GSSG (3D bronchial cultures [2]; [11]) was “no further impact” and the GSH (3D bronchial cultures [2]; [12]) was “further decreased”. For the same compound, the GSH/GSSG (3D bronchial cultures [2]; [12]) was “further decreased”, the GSH/GSSG (3D bronchial cultures [2]; [13]) was “no effect on GSH/GSSG” and the ROS (NHBE cells [3]; [10]) was “increased ROS”. For the same compound, the ROS (3D bronchial cultures [4]; [11]) was “no further impact” and the ROS (3D bronchial cultures [4]; [13]) was “significantly increased ROS”.

In the case of `CC1=CC(=O)c2ccccc2C1=O` [Menadione], the ROS (A549 lung cell line [5]) is given as “increase in ROS”, the “Ratio GSH/GSSG” value (HepaRG ®) is given as 2.5 and the GSH/GSSG (NHBE cells [1]; 100 μM) is given as “decreased GSH/GSSG”. For the same compound, the GSH/GSSG (NHBE cells [1]; 300 μM (highest dose)) was “lowest GSH/GSSG”, the GSH/GSSG reduction (NHBE cells [1]; 300 μM (highest dose)) was 6 fold and the “Ratio GSH/GSSG” value (HepG2) was 2.2. The GSH (3D bronchial cultures [2]; [14]) was “dose-dependent decrease”, the GSH/GSSG (3D bronchial cultures [2]; [14]) was “dose-dependent decrease” and the GSSG (3D bronchial cultures [2]; [14]) was “increase”. For the same compound, the cell viability (A549 lung cell line [6]) was “effects on cell viability at the two highest concentrations”, the cell viability (NHBE cells [7]; 300 μM (highest dose)) was “decreased cell viability” and the “oxidative stress and cytotoxicity (as determined by ATP levels) with longer exposure” value (NHBE cells [7]; 2 hour versus 1 hour time point) was “more oxidative stress and cytotoxicity”. The “Ratio GSH/GSSG” value (Rat hepatocytes) was 1.1, the ROS (NHBE cells [3]; 100 μM) was “increased ROS” and the ROS (NHBE cells [3]; 300 μM (highest dose)) was “highest ROS”. The “Ratio GSH/GSSG” value (A549) was 10.9, the ROS (3D bronchial cultures [4]; [14]) was “increase” and the “Ratio GSH/GSSG” value (HeLa) was 2.2. The GSH/GSSG (A549 lung cell line [8]) was “decrease in GSH/GSSG” and the cell viability (3D bronchial cultures [9]) was “no effects on cell viability”.
